Target: recombinant human ROCK-I (Homo sapiens, UniProt Q13464)
Test: biochemical
Conditions: IMAP fluorescence polarisation, dose response curve, read-out: plC50 (the source's name)
Protocol: Following a one hour incubation at room temperature in the dark, enzyme activity is detected by adding 60 μl of IMAP binding reagent (Molecular Devices) to each well.

recombinant human ROCK-I, sequence (Q13464 whole entry): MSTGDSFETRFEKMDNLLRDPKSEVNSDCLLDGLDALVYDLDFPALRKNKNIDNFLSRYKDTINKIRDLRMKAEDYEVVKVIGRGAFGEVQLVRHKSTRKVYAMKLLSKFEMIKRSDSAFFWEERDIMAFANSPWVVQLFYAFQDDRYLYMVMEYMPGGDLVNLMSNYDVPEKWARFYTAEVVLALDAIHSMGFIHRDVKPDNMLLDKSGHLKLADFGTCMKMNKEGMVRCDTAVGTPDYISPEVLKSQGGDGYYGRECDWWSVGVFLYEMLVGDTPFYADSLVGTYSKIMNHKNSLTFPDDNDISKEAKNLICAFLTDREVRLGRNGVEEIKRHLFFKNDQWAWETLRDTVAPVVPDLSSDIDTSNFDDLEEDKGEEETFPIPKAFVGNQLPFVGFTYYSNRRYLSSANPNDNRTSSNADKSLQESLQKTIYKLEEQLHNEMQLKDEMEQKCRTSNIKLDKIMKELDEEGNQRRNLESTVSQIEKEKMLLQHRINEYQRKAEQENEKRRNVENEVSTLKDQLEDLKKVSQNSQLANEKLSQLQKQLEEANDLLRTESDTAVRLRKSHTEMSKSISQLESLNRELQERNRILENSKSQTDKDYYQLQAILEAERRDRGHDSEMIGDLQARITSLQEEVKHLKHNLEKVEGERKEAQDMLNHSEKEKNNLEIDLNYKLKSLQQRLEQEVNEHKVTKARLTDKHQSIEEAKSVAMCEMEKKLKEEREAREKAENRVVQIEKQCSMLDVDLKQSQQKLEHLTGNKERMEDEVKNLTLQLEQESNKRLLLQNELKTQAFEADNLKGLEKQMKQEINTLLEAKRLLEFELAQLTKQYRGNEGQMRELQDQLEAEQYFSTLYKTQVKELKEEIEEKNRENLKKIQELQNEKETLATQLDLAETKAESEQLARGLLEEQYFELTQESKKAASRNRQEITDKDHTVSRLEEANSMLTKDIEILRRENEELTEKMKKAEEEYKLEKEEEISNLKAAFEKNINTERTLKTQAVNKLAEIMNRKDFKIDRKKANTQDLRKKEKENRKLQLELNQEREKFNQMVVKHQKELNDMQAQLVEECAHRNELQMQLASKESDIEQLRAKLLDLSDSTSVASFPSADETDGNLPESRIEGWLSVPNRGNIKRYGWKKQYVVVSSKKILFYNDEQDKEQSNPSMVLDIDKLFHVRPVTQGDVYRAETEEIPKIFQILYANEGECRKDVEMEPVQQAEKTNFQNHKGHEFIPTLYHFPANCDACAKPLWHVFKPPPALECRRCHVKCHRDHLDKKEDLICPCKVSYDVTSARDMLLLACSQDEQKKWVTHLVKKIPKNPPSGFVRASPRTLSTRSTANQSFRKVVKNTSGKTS

## Nc1nccc2cc(S[C@H]3CC[C@@H](N)CC3)ccc12 [Example 4, Cis-6-(4-aminocyclohexylsulfanyl)isoquinolin-1-ylamine]
  IC50: < 0.316 µM
